Laboratory results reported in article PMC11118615, “Cloning, Expression, Characterization and Immobilization of a Recombinant Carboxylesterase from the Halophilic Archaeon, Halobacterium salinarum NCR-1” (Biomolecules, 2024).

biological target: T1, rHsEst (recombinant carboxylesterase HsEst) (Halobacterium salinarum, UniProt Q9HPT9); test: spectrophotometric p-nitrophenol release, Michaelis-Menten nonlinear fit; format: biochemical; conditions: free enzyme; pH 8.0 Tris-HCl, 1 M NaCl, 30 °C (methods print 25 °C)
T1 construct: gene est; synthetic gene in pTA1392, N-terminal 6xHis-tag, expressed in Haloferax volcanii H1209, HisTrap purified
Excerpt: spectrophotometric p-nitrophenol release, Michaelis-Menten nonlinear fit on rHsEst (recombinant carboxylesterase HsEst)

T1 sequence (Q9HPT9 entry or part of it): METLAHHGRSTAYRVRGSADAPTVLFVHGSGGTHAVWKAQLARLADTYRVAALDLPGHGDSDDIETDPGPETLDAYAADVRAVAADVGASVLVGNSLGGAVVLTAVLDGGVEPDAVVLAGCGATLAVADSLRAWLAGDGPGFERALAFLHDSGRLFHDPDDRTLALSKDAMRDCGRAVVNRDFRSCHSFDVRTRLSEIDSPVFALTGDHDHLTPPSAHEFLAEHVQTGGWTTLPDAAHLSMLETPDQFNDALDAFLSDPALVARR

| Km [µM] | SMILES |
| --- | --- |
| 258 ± 51 | CC(=O)Oc1ccc([N+](=O)[O-])cc1 [pNPC2, p-nitrophenyl acetate] |
| 78 ± 7 | CCCCC(=O)Oc1ccc([N+](=O)[O-])cc1 [pNPC5, p-nitrophenyl valerate] |
| 245 ± 26 | CCCCCCCC(=O)Oc1ccc([N+](=O)[O-])cc1 [pNPC8, p-nitrophenyl octanoate] |
